Measurements: patent US20250145631A1, “HETEROCYCLIC COMPOUND ACTING ON G12D MUTANT KRAS PROTEIN” (Astellas Pharma Inc., priority 2022, published 2025)

Assays:
Format in all cases: cell-based
KRAS G12D = biological target: T1, KRAS G12D (Homo sapiens, UniProt P01116, G12D); experiment: KRAS degradation activity by Cell ELISA in AsPC-1 cells (Test Example 1); conditions: Cell ELISA; for Dmax: ASPC1, overnight treatment, read-out: Dmax (degradation rate at the concentration showing highest degradation); for DC50: overnight treatment, read-out: DC50 (50% degradation concentration of KRAS)
T1 construct: host or cells: AsPC-1 (human pancreatic cancer line)
Experimental: The KRAS degradation activity of test compounds was evaluated by measuring the expression levels of KRAS G12D by Cell ELISA.
AsPC-1 cells were seeded at 20 μL per well on 384-well plates (from Greiner bio-one) to give 2.0×10^4 cells per well. As for the cell culture conditions, RPMI 1640 (from Sigma-Aldrich) medium containing 10% fetal bovine serum (from Cytiva) was used in the presence of 5% CO2 at 37° C.
The next day, the test compounds (10 points having final concentrations in the range of 10 μM to 0.3 nM) and DMSO (from FUJIFILM Wako Pure Chemical Corporation), which was the solvent for the test compounds, as a negative control were diluted 500-fold with a fresh medium and were added at 20 μL per well. The cells were cultured overnight. The next day, the culture supernatant was removed, and 4% paraformaldehyde phosphate buffer (from FUJIFILM Wako Pure Chemical Corporation) was added at 20 μL per well. The plates were allowed to stand for 30 minutes at room temperature to thus immobilize the cells. Then, the supernatant was removed, and 0.1% Triton X-100 (from Amersham Biosciences)-containing Phosphate buffered saline (PBS; from FUJIFILM Wako Pure Chemical Corporation) was added at 20 μL per well. After allowing to stand for 10 minutes at room temperature, the supernatant was removed. PBS was added at 25 μL per well, and the supernatant was removed to thus wash each well. The washing was performed twice in total. Next, the supernatant was removed, and 0.5% sodium dodecyl sulfate (SDS; from Invitrogen)-containing PBS was added at 20 μL per well. After allowing to stand at room temperature for 10 minutes, the supernatant was removed by a centrifugal operation (using a centrifugal dehydrator machine, the supernatant was removed by the same method hereinafter). PBS was added at 25 μL per well, and the supernatant was removed to thus wash each well. The washing was performed twice in total. The supernatant was removed, and blocking solution (Intercept Blocking Buffer; from Li—COR Biosciences) was added at 20 μL per well. After allowing to stand for 30 minutes at room temperature, the supernatant was removed, and a solution obtained by diluting anti-β-actin antibody (Anti-beta Actin antibody [mAbcam 8226]-Loading Control; from abcam) 1,000-fold with blocking solution and a solution obtained by diluting anti-Ras (G12D Mutant Specific) antibody (Ras (G12D Mutant Specific) (D8H7) Rabbit mAb #14429; from Cell Signaling Technology) and anti-β-actin antibody (from abcam) 1,000-fold with blocking solution were respectively added to positive control wells and the other wells at 15 μL per well as a primary antibody. The plates were allowed to stand overnight at 4° C.
The next day, the supernatant was removed. PBS was added at 25 μL per well, and the supernatant was removed to thus wash each well. The washing was performed twice in total. The supernatant was removed, and a solution obtained by diluting Donkey anti-Mouse IgG H&L (IRDye 680RD) (from Li—COR Biosciences) and Goat anti-Rabbit IgG H&L (IRDye 800CW) (from Li—COR Biosciences) 1,000-fold with blocking solution was added at 15 μL per well as a secondary antibody. A solution obtained by diluting Donkey anti-Mouse IgG H&L (IRDye 680RD) (from Li—COR Biosciences) 1,000-fold with blocking solution was added to a positive control well as a secondary antibody. After allowing to stand for 1 hour at room temperature, the supernatant was removed. PBS was added at […], and the supernatant was removed to thus wash each well. The washing was performed twice in total. After removing the supernatant, the plates were dried with air at room temperature for 2 hours or more, and the 700 nm and 800 nm fluorescent signals were measured with Aerius (from Li—COR Biosciences). […]

[1] = system: phosphorylation of ERK (Thr202/Tyr204); experiment: ERK phosphorylation inhibitory effect by Cell ELISA in AsPC-1 cells (Test Example 2); conditions: Homo sapiens, ASPC1, overnight treatment, Cell ELISA, read-out: IC50 (ERK phosphorylation inhibition)
Experimental: The ERK phosphorylation inhibitory effect of test compounds was evaluated by measuring phosphorylation of threonine 202 (Thr202) and tyrosine 204 (Tyr204) of ERK located downstream of the KRAS signal by Cell ELISA.
AsPC-1 cells were seeded on 384-well plates at 20 µL/well to give 2.0×10^4 cells per well. As for the cell culture conditions, RPMI 1640 medium containing 10% fetal bovine serum was used in the presence of 5% CO2 at 37° C.
The next day, the test compounds (10 points having final concentrations in the range of 10 μM to 0.3 nM), trametinib (MEK inhibitor) of a final concentration of […] as positive control and DMSO, which was the solvent for the test compounds, as negative control were diluted 500-fold with a fresh medium and were added at 20 μL per well. The cells were cultured overnight. After culturing, 30% glyoxal solution (40% glyoxal [from Nacalai Tesque]was diluted with PBS) was quickly added at 30 μL per well, and the plates were allowed to stand for 120 minutes at room temperature to thus immobilize the cells. Then, the plates were centrifuged to remove the supernatant (using a centrifugal dehydrator machine, the supernatant was removed by the same method hereinafter), and 0.10% Triton X-100-containing PBS was added at 20 μL per well. After allowing to stand for 10 minutes at room temperature, the supernatant was removed, and the same operation was further repeated. Next, 0.5% SDS-containing PBS was added at 20 μL per well, and after allowing to stand at room temperature for 30 minutes, the supernatant was removed. Subsequently, blocking solution (Intercept Blocking Buffer) was added at 20 μL per well, and the plates were allowed to stand for 1 hour at room temperature. The supernatant was removed, and an ERK (Thr202/Tyr204) phosphorylation antibody (Phospho-p44/42 MAPK (Erk 1/2) (Thr202/Tyr204) (D13.14.4E) XP Rabbit mAb; from Cell Signaling Technology) diluted 2,500-fold with blocking solution was added at 15 μL per well as a primary antibody. The plates were allowed to stand at 4° C. overnight.
The next day, the supernatant was removed. 0.05% Tween-20 (from Thermo Fisher Scientific)-containing PBS was added at 50 μL per well, and the supernatant was removed to thus wash each well. The washing was performed three times in total. After washing, Goat anti-Rabbit IgG H&L (IRDye 800CW) diluted 1,000-fold with blocking solution was added at 15 μL per well as a secondary antibody, and the plates were allowed to stand for 1 hour at room temperature. The supernatant was removed, and each well was washed three times with 0.05% Tween-20-containing PBS in the same manner as after the primary antibody reaction. After removing the supernatant, the plates were dried with air at room temperature for 3 hours or more, and the 800-nm fluorescent signals were measured with Aerius.
With the signaling value at the time of addition of DMSO taken as 100% and with the signaling value at the time of addition of […] trametinib taken as 0%, the 50% inhibitory concentration values (IC50) were calculated by Sigmoid-Emax nonlinear regression analysis. The calculated 50% inhibition represents the inhibition at the highest concentration evaluated (10 μM) for a compound that exceeds the concentration in the evaluation range.
(§1) In the tables presented below, Ex represents Example No. The IC50 of Ex. 13, Ex. 15, and Ex. 16 were calculated using the molecular weights as tetrahydrochloride, and the IC50 of Ex. 14 was calculated using the molecular weight as trihydrochloride.

[2] = system: human G12D mutant KRAS-positive pancreatic cancer line AsPC-1; experiment: Non-anchorage-dependent cell growth inhibitory effect, spheroid 3D culture (Test Example 3); conditions: ASPC1, 144 h, AsPC-1 spheroid 3D culture, 6 days, CellTiter Glo 2.0, read-out: IC50 (non-anchorage-dependent cell growth inhibition)
Experimental: The non-anchorage-dependent cell growth inhibitory effect of test compounds was evaluated by spheroid 3D cell culture.
AsPC-1 cells were seeded on low-cell-adhesive round bottom 384-well plates (PrimeSurface: from Sumitomo Bakelite) at 20 μL (or […])/well to give 5×10^2 cells per well. As for the cell culture conditions, RPMI 1640 medium containing 10% fetal bovine serum was used in the presence of 5% CO2 at 37° C.
The next day, the test compounds (10 points or 6 points having final concentrations in the range of 10 μM to 0.3 nM) and DMSO, which was the solvent for the test compounds, as a negative control were diluted 500-fold (or 100-fold) with a fresh medium and were added at 20 μL (or […]) per well. After culturing in the presence of 5% C02 at 37° C. for 6 days, CellTiter Glo 2.0 (from Promega) was added at 20 μL per well. After stirring with a plate mixer (from FINEPCR) at normal temperature for 1 hour, the luminescent signals were measured with ARVO X3 (from PerkinElmer).
With the signaling value in treatment with DMSO taken as 100% and with the signaling value in the medium alone without cells taken as 0%, the 50% inhibitory concentration values (IC50) were calculated by Sigmoid-Emax nonlinear regression analysis. The calculated 50% inhibition represents the inhibition at the highest concentration evaluated (10 μM) for a compound that exceeds the concentration in the evaluation range.
as §1

T1 sequence (P01116 1-188 isoform P01116-2 G12D): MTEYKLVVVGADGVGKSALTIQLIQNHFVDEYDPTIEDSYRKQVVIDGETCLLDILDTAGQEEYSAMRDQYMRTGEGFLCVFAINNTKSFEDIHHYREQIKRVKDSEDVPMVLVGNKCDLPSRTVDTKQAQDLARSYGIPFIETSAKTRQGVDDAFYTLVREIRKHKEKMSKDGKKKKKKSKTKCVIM

Dmax (KRAS G12D) | DC50 (KRAS G12D) | IC50 [1] | IC50 [2] | SMILES
66% | 408 nM | 608 nM | 1220 nM | Cc1c(F)cc2[nH]ncc2c1-c1c(C2CC2)cc2c(N3C[C@@H]4C[C@H]3CN4)nc(OC3CCOCC3)nc2c1OCc1ccc(C(=O)N2CCN(Cc3ccc4c(N5CCC(=O)NC5=O)nn(C)c4c3)CC2)cc1 (atropisomer, axis not shown) [Example 13]
51% | 2180 nM | 1510 nM | 1120 nM | Cc1nc(N2CCN(C(=O)c3ccc(COc4c(-c5c(C)c(F)cc6[nH]ncc56)c(C5CC5)cc5c(N6C[C@@H]7C[C@H]6CN7)nc(OC6CCOCC6)nc45)cc3)CC2)ccc1N1CCC(=O)NC1=O (atropisomer, axis not shown) [Example 14]
60% | 406 nM | 503 nM | 211 nM | Cc1c(F)cc2[nH]ncc2c1-c1c(C2CC2)cc2c(N3C[C@@H]4C[C@H]3CN4)nc(OC3CCOCC3)nc2c1OCc1ccc(C(=O)N2CCN(Cc3ccc4c(N5CCC(=O)NC5=O)nn(C)c4c3)C[C@H]2C)cc1 (atropisomer, axis not shown) [Example 15]
52% | 4270 nM | 1340 nM | 684 nM | Cc1nc(OC2CCN(C(=O)c3ccc(COc4c(-c5c(C)c(F)cc6[nH]ncc56)c(C5CC5)cc5c(N6C[C@@H]7C[C@H]6CN7)nc(OC6CCOCC6)nc45)cc3)CC2)ccc1N1CCC(=O)NC1=O (atropisomer, axis not shown) [Example 17]
93% | 278 nM | 555 nM | 242 nM | Cc1c(F)cc2[nH]ncc2c1-c1c(C2CC2)cc2c(N3C[C@@H]4C[C@H]3CN4)nc(OC3CCOCC3)nc2c1OCc1ccc(C(=O)N2CCC3(CN(Cc4ccc5c(N6CCC(=O)NC6=O)nn(C)c5c4)C3)C2)cc1 (atropisomer, axis not shown) [Example 19]
78% | 488 nM | 1070 nM | 884 nM | Cc1c(F)cc2[nH]ncc2c1-c1c(C2CC2)cc2c(N3C[C@@H]4C[C@H]3CN4)nc(OC3CCOCC3)nc2c1OCc1ccc(C(=O)N2CC[C@H](N(C)Cc3ccc4c(N5CCC(=O)NC5=O)nn(C)c4c3)C2)cc1 (atropisomer, axis not shown) [Example 20]
52% | 4960 nM | 2280 nM | 852 nM | Cc1c(N2CCC(=O)NC2=O)ccnc1OC1CCN(C(=O)c2ccc(COc3c(-c4c(C)c(F)cc5[nH]ncc45)c(C4CC4)cc4c(N5C[C@@H]6C[C@H]5CN6)nc(OC5CCOCC5)nc34)cc2)CC1 (atropisomer, axis not shown) [Example 21]
84% | 114 nM | 283 nM | 128 nM | Cc1c(F)cc2[nH]ncc2c1-c1c(C2CC2)cc2c(N3C[C@@H]4C[C@H]3CN4)nc(OC3CCOCC3)nc2c1OCc1ccc(C(=O)N2CCN(Cc3ccc4c(N5CCC(=O)NC5=O)n(C)nc4c3)C[C@@H]2C)cc1 (atropisomer, axis not shown) [Example 22]
– | – | – | 1280 nM | Cc1c(F)cc2[nH]ncc2c1-c1c(C2CC2)cc2c(N3C[C@@H]4C[C@H]3CN4)nc(OC3CCOCC3)nc2c1OCc1ccc(C(=O)N2CCN(Cc3ccc4c(c3)cc(N3CCC(=O)NC3=O)c(=O)n4C)C[C@@H]2C)cc1 (atropisomer, axis not shown) [Example 46]
– | – | – | 448 nM | Cc1c(F)cc2[nH]ncc2c1-c1c(C2CC2)cc2c(N3C[C@@H]4C[C@H]3CN4)nc(OC3CCOCC3)nc2c1OCc1ccc(C(=O)N2CCN(Cc3ccc4c(c3)n(C)c(=O)n4N3CCC(=O)NC3=O)C[C@@H]2C)cc1 (atropisomer, axis not shown) [Example 47]
– | – | – | 162 nM | CO[C@@H](C)COc1nc(N2CCNCC2)c2cc(C3CC3)c(-c3c(C)c(F)cc4[nH]ncc34)c(OCc3ccc(C(=O)N4CCN(Cc5ccc6c(c5)n(C)c(=O)n6C5CCC(=O)NC5=O)C[C@@H]4C)cc3)c2n1 (stereo partly drawn) [Example 45]
– | – | – | 161 nM | Cc1c(F)cc2[nH]ncc2c1-c1c(C2CC2)nc2c(N3C[C@@H]4C[C@H]3CN4)nc(OC3CCOCC3)nc2c1OCc1ccc(C(=O)N2CCN(Cc3ccc4c(c3)n(C)c(=O)n4C3CCC(=O)NC3=O)C[C@@H]2C)cc1 (stereo partly drawn) [Example 48]
